Source: ChEMBL document CHEMBL4251601 (Eur J Med Chem, 2018)

Legend:
[1] = Cmax in Sprague-Dawley rat at 5 mg/kg, po administered as single dose by LC-MS/MS analysis; type: ADME, organism-based; design: dose 5 mg/kg, route oral; conditions: in vivo
[2] = Half life in Sprague-Dawley rat at 5 mg/kg, po administered as single dose by LC-MS/MS analysis; type: ADME, organism-based; conditions: in vivo
[3] = Oral bioavailability in Sprague-Dawley rat at 5 mg/kg administered as single dose by LC-MS/MS analysis; type: ADME, organism-based; conditions: Sprague-Dawley, in vivo
[4] = target: Tyrosine-protein kinase receptor UFO (Homo sapiens) (UniProt P30530); test: Inhibition of recombinant human N-terminal GST tagged AXL (473-end residues) expressed in baculovirus infected Sf9 cells at 0.1 uM by Z'-Lyte assay relative to control
[5] = target: Hepatocyte growth factor receptor (Homo sapiens) (UniProt P08581); test: Inhibition of recombinant human His-tagged c-Met cytoplasmic domain expressed in baculovirus expression system at 0.1 uM by Z'-Lyte assay relative to control
Sequence of Hepatocyte growth factor receptor (Homo sapiens) (P08581 whole entry, the tested form may be a part): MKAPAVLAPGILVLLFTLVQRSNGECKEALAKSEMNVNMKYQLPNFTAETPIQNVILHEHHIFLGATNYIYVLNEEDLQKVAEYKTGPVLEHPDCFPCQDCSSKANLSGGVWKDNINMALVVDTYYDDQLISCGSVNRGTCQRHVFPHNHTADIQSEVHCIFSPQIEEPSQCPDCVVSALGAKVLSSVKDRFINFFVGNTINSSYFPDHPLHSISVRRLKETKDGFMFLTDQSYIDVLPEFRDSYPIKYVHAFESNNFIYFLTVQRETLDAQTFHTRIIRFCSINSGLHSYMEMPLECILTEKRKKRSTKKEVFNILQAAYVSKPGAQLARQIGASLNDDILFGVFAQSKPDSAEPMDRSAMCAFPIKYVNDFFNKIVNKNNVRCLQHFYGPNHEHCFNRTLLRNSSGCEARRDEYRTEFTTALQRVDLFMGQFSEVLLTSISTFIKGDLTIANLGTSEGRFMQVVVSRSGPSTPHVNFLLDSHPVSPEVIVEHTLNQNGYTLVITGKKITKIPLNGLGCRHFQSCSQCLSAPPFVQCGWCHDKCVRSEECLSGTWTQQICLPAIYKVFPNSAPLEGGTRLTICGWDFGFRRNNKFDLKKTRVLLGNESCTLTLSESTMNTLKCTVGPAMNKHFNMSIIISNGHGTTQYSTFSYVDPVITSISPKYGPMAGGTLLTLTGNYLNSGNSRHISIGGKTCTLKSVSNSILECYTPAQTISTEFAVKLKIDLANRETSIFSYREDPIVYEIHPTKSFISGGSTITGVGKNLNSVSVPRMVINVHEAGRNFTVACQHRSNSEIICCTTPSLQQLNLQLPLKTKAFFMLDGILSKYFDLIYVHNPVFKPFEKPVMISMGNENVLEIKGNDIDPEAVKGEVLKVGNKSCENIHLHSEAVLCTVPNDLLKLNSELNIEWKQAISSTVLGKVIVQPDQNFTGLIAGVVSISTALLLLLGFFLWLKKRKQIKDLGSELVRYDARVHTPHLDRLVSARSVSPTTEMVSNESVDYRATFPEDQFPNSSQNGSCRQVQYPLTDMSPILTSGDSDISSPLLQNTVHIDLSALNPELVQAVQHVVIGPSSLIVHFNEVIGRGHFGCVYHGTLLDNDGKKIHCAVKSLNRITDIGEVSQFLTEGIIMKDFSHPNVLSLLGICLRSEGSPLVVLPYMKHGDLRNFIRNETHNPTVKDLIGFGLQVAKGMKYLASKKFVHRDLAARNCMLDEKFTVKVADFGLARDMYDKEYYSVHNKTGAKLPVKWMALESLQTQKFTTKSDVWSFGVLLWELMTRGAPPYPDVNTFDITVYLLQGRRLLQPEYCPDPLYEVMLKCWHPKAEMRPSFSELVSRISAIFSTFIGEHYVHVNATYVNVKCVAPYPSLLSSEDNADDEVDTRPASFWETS

[6] = test system: Epidermal growth factor receptor (Homo sapiens), P00533 [UNDEFINED MUTATION]; test: Inhibition of recombinant human EGFR d746 to 750 deletion/T790M mutant at 0.1 uM by TR-FRET assay relative to control
[7] = target: Glycogen synthase kinase-3 beta (Homo sapiens) (UniProt P49841); test: Inhibition of recombinant human full length His-tagged GSK3beta expressed in baculovirus expression system at 0.1 uM by Z'-Lyte assay relative to control
[8] = target: Vascular endothelial growth factor receptor 2 (Homo sapiens) (UniProt P35968); test: Inhibition of recombinant human His-tagged KDR cytoplasmic domain expressed in baculovirus expression system at 0.1 uM by Z'-Lyte assay relative to control
[9] = target: Tyrosine-protein kinase Lyn (Homo sapiens) (UniProt P07948); test: Inhibition of recombinant human full length GST-tagged Lyn-A expressed in insect cells at 0.1 uM by Z'-Lyte assay relative to control
[10] = target: T1, Mitogen-activated protein kinase kinase kinase 14 (Homo sapiens, UniProt Q99558); test: Inhibition of recombinant human GST-tagged NIK expressed in baculovirus expression system at 0.1 uM by Z'-Lyte assay relative to control
T1 sequence (Q99558 whole entry, looked up): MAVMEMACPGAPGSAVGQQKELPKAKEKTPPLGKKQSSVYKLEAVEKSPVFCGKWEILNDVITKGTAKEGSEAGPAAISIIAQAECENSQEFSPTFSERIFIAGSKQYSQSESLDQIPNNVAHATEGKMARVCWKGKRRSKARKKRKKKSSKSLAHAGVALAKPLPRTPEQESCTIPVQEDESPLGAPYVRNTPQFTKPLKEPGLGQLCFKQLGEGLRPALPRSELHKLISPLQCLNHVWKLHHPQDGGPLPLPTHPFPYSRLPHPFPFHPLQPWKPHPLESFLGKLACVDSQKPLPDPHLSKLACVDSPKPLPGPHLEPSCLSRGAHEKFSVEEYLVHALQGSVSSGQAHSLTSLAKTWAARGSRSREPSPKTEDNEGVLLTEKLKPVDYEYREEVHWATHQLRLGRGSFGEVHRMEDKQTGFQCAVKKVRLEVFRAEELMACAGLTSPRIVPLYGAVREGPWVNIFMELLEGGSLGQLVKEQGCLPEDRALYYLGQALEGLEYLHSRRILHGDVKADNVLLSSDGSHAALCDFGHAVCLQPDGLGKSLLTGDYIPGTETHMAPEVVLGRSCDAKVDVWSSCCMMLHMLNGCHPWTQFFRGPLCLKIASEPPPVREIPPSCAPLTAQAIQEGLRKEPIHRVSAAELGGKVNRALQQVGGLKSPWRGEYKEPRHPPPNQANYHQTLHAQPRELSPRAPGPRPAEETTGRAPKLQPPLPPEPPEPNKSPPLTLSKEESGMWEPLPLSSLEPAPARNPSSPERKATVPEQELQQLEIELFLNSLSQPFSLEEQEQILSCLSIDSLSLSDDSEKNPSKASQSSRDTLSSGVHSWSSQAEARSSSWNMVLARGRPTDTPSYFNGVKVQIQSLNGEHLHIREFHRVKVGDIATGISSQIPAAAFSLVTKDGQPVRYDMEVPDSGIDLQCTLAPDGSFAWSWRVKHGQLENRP

[11] = target: Serine/threonine-protein kinase PAK 2 (Homo sapiens) (UniProt Q13177); test: Inhibition of recombinant human full length GST-tagged PAK2 expressed in baculovirus expression system at 0.1 uM by Z'-Lyte assay relative to control
[12] = target: Phosphatidylinositol 4,5-bisphosphate 3-kinase catalytic subunit beta isoform (Homo sapiens) (UniProt P42338); test: Inhibition of PI3K beta (unknown origin) at 0.1 uM by ADP-Glo assay relative to control
Sequence of Phosphatidylinositol 4,5-bisphosphate 3-kinase catalytic subunit beta isoform (Homo sapiens) (P42338 whole entry, looked up, canonical isoform): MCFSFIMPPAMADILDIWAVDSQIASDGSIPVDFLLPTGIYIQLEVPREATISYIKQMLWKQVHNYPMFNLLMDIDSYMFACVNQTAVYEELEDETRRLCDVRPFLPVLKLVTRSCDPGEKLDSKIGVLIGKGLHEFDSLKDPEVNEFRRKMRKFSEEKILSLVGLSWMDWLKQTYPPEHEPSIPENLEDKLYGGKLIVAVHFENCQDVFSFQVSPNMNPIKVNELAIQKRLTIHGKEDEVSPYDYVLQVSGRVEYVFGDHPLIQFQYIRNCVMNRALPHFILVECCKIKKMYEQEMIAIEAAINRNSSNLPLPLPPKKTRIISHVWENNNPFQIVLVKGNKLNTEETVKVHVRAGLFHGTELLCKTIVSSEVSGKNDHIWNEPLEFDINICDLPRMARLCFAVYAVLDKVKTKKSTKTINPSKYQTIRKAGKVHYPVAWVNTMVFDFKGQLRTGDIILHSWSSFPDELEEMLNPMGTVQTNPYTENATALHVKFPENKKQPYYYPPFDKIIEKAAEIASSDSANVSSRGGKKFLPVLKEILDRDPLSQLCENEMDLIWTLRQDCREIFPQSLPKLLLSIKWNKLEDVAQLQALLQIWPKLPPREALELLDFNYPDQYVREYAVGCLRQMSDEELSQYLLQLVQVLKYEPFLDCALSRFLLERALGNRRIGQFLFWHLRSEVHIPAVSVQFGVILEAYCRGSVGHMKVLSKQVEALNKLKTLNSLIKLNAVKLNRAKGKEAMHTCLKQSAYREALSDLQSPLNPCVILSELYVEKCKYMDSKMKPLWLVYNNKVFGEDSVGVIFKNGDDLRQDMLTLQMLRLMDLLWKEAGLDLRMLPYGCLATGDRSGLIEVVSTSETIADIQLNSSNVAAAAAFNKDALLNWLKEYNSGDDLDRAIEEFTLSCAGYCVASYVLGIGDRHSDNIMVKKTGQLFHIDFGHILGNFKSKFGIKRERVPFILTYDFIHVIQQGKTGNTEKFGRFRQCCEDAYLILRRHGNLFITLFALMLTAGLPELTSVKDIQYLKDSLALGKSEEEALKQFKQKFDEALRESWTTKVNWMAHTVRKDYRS

[13] = target: Tyrosine-protein kinase Srms (Homo sapiens) (UniProt Q9H3Y6); test: Inhibition of recombinant human full length GST-tagged SRMS expressed in baculovirus expression system at 0.1 uM by TR-FRET assay relative to control
[14] = target: ALK tyrosine kinase receptor (Homo sapiens) (UniProt Q9UM73); test: Inhibition of recombinant N-terminal GST-tagged human ALK cytoplasmic domain (1058 to 1620 residues) expressed in baculovirus expression system at 1 uM by TR-FRET assay relative to control
[15] = target: Dual specificity protein kinase CLK1 (Homo sapiens) (UniProt P49759); test: Inhibition of recombinant human GST-tagged CLK1 expressed in Escherichia coli at 1 uM by Z'-Lyte assay relative to control
[16] = target: Epidermal growth factor receptor (Homo sapiens) (UniProt P00533); test: Inhibition of recombinant human GST-tagged EGFR cytoplasmic domain expressed in baculovirus expression system at 1 uM by TR-FRET assay relative to control
[17] = target: G protein-coupled receptor kinase 5 (Homo sapiens) (UniProt P34947); test: Inhibition of recombinant human full length GST-tagged GRK5 expressed in baculovirus expression system at 1 uM by Z'-Lyte assay relative to control
Sequence of G protein-coupled receptor kinase 5 (Homo sapiens) (P34947 whole entry, looked up): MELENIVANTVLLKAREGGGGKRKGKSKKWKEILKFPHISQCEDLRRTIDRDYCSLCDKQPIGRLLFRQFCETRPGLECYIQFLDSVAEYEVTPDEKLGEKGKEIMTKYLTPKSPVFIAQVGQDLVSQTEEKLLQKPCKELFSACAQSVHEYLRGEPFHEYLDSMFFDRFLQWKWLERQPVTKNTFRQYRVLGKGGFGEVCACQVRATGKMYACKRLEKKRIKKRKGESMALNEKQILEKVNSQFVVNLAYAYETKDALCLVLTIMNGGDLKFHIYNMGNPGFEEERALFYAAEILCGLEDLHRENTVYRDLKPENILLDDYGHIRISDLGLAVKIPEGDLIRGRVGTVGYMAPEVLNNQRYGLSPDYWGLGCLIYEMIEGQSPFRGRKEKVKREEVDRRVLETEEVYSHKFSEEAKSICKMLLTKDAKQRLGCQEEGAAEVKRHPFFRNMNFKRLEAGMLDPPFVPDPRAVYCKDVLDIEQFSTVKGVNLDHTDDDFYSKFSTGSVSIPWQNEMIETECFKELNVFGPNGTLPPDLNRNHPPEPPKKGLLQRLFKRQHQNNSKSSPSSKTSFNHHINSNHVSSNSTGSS

[18] = target: Tyrosine-protein kinase JAK3 (Homo sapiens) (UniProt P52333); test: Inhibition of recombinant human GST-tagged JAK3 expressed in baculovirus expression system at 1 uM by TR-FRET assay relative to control
Sequence of Tyrosine-protein kinase JAK3 (Homo sapiens) (P52333 whole entry): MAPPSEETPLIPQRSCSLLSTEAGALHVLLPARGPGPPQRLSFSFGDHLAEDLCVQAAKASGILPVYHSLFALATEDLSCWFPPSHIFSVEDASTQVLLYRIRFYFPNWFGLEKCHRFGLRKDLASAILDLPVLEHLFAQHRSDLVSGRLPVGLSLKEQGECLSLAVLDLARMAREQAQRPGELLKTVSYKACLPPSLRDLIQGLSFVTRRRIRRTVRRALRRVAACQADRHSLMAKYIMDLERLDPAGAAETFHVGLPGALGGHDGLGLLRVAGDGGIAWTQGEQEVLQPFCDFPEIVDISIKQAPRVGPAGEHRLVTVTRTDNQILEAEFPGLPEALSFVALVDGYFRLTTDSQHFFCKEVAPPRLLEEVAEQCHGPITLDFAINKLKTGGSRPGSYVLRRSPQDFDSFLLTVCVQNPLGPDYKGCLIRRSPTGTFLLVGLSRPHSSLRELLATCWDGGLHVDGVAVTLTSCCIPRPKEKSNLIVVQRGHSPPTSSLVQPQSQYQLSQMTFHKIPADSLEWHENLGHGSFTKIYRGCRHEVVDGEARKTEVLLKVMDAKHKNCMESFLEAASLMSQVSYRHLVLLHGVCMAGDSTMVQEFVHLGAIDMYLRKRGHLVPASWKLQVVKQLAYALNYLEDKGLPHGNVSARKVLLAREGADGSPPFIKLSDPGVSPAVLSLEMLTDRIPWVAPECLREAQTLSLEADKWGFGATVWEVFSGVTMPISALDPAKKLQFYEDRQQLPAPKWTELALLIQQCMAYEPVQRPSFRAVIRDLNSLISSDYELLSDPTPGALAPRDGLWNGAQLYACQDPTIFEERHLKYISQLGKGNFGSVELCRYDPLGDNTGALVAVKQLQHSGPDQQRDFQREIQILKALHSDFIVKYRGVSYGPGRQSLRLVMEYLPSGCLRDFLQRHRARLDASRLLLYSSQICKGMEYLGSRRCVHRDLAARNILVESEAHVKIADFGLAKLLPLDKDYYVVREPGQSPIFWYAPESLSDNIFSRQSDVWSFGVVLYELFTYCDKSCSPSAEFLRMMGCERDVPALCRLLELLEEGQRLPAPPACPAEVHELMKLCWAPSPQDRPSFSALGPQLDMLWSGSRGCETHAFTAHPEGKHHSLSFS

[19] = target: T1, Mitogen-activated protein kinase kinase kinase 14; test: Inhibition of recombinant human GST-tagged NIK expressed in baculovirus expression system at 1 uM by Z'-Lyte assay relative to control
[20] = target: Misshapen-like kinase 1 (Homo sapiens) (UniProt Q8N4C8); test: Inhibition of recombinant human GST-tagged MINK (1 to 320 residues) expressed in baculovirus expression system at 1 uM by Z'-Lyte assay relative to control
[21] = target: Serine/threonine-protein kinase PAK 4 (Homo sapiens) (UniProt O96013); test: Inhibition of recombinant human GST-tagged PAK4 expressed in baculovirus expression system at 1 uM by Z'-Lyte assay relative to control
[22] = target: Phosphatidylinositol 4,5-bisphosphate 3-kinase catalytic subunit beta isoform (Homo sapiens) (UniProt P42338); test: Inhibition of PI3K beta (unknown origin) at 1 uM by ADP-Glo assay relative to control
[23] = target: RAF proto-oncogene serine/threonine-protein kinase (Homo sapiens) (UniProt P04049); test: Inhibition of RAF1 (unknown origin) at 1 uM by TR-FRET assay relative to control
[24] = test system: Proto-oncogene tyrosine-protein kinase receptor Ret (Homo sapiens), P07949 [V804L]; test: Inhibition of recombinant human GST-tagged RET V804L mutant expressed in baculovirus expression system at 1 uM by Z'-Lyte assay relative to control
[25] = target: Angiopoietin-1 receptor (Homo sapiens) (UniProt Q02763); test: Inhibition of recombinant human GST-tagged TIE2 cytoplasmic domain expressed in baculovirus expression system at 1 uM by Z'-Lyte assay relative to control
[26] = AUC (0 to infinity) in ICR mouse at 2 mg/kg, iv administered as single dose by LC-MS/MS analysis; type: ADME, organism-based; design: dose 2 mg/kg, time infinity, route intravenous; conditions: in vivo
[27] = AUC (0 to infinity) in ICR mouse at 5 mg/kg, po administered as single dose by LC-MS/MS analysis; type: ADME, organism-based; design: dose 5 mg/kg, route oral, time infinity; conditions: in vivo
[28] = Half life in ICR mouse at 5 mg/kg, po administered as single dose by LC-MS/MS analysis; type: ADME, organism-based; conditions: in vivo
[29] = Cmax in CD-1 mouse plasma at 10 mg/kg, po administered as single dose by LC-MS/MS analysis; type: ADME, organism-based; design: dose 10 mg/kg, route oral
[30] = test system: U-87 MG; test: Antitumor activity against luciferase-fused human U87MG cells orthotopically xenografted in nude mouse assessed as increase in mouse life span at 12.5 mg/kg, po qd for 5 weeks relative to control; type: functional, U-87MG ATCC; conditions: 840 h
[31] = test system: Mitogen-activated protein kinase kinase kinase 7; test: Inhibition of TAK1 (unknown origin) at 0.1 uM by TR-FRET assay relative to control; conditions: Homo sapiens
[32] = target: Tyrosine-protein kinase SYK (Homo sapiens) (UniProt P43405); test: Inhibition of recombinant human full length GST-tagged SYK expressed in baculovirus expression system at 0.1 uM by Z'-Lyte assay relative to control

Q: Which results are given for CC1=Nc2c(F)cc(-c3nc(Nc4ccc(C5CCN(C)CC5)cn4)ncc3F)cc2C12CCCC2 [CROZBACICLIB]?
A: Cmax [1]: 134 ng/mL; half-life [2]: 8.5 h; bioavailability [3]: 66%; inhibition [4]: -1%; inhibition [5]: 12%; inhibition [6]: 26%; inhibition [7]: 12%; inhibition [8]: 2%; inhibition [9]: 0%; inhibition [10]: 56%; inhibition [11]: 2%; inhibition [12]: 0%; inhibition [13]: 20%; inhibition [14]: 89%; inhibition [15]: 99%; inhibition [16]: 31%; inhibition [17]: 1%; inhibition [18]: 92%; inhibition [19]: 105%; inhibition [20]: 90%; inhibition [21]: 12%; inhibition [22]: 11%; inhibition [23]: 0%; inhibition [24]: 16%; inhibition [25]: -2%; AUC(0-inf) [26]: 1330 ng·h/mL; AUC(0-inf) [27]: 2500 ng·h/mL; half-life [28]: 8.38 h; Cmax [29]: 818 ng/mL; ILS at 12.5 mg/kg [30]: 48%; inhibition [31]: 5%; inhibition [32]: 5%
